Assay results reported in PubChem BioAssay AID743016 (Vanderbilt Specialized Chemistry Center, 2013).

What follows are compounds tested against Mas-related G-protein coupled receptor member X1 (Homo sapiens) (UniProt Q96LB2) (assay: MrgX1 positive allosteric modulators, dose response, cell-based, HEK293, calcium flux, BAM8-22 (AID 743016)). Settings: HEK293-MrgX1, Fluo4 calcium flux, BAM8-22 potentiation; with BAM 0.1 µM;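 active means compounds raising MrgX1 calcium signal by over 3 SD of library plate-corrected scores; inactive means the rest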.
Sequence of Mas-related G-protein coupled receptor member X1 (Homo sapiens) (Q96LB2 whole entry, looked up): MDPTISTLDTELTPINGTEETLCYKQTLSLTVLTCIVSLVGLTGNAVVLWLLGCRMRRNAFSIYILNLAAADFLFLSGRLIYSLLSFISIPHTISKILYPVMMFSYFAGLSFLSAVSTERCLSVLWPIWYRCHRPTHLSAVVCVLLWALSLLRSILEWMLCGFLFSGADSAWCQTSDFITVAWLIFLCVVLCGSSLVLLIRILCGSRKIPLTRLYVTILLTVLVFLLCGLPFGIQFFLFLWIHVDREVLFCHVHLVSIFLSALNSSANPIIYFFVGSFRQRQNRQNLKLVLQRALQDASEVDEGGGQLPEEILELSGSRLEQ

EC50, active:
CCOc1ccccc1NC(=O)c1ccccc1N(C)S(C)(=O)=O 1390 nM, COc1ccccc1NC(=O)c1ccccc1NS(C)(=O)=O 3060 nM, CCOc1ccccc1NC(=O)c1ccccc1NS(=O)(=O)CC 910 nM, COc1ccc(Cl)cc1NC(=O)c1ccccc1NS(C)(=O)=O 1010 nM, CCOc1ccccc1NC(=O)c1ccccc1NS(C)(=O)=O 1910 nM, COc1ccc(NC(=O)c2ccccc2NS(=O)(=O)c2cccnc2Cl)c(OC)c1 2910 nM, CCOc1ccccc1NC(=O)c1ccccc1NS(=O)(=O)CC1CC1 4470 nM, CSc1ccccc1NC(=O)c1ccccc1NS(C)(=O)=O 420 nM, CCOc1ccccc1NC(=O)c1ccccc1NS(=O)(=O)CCCl 380 nM, COc1ccc(NC(=O)c2ccccc2NS(C)(=O)=O)c(OC)c1 150 nM, CSc1ccccc1NC(=O)c1ccccc1N(C)S(C)(=O)=O 500 nM, CCOc1ccccc1NC(=O)c1ccccc1NS(=O)(=O)C1CC1 190 nM, COC(=O)c1ccccc1NC(=O)c1ccccc1N(C)S(C)(=O)=O 1570 nM, COc1ccc(C)cc1NC(=O)c1ccccc1NS(C)(=O)=O 2340 nM, CCOc1ccccc1NC(=O)c1ccccc1NS(=O)(=O)C(C)C 1820 nM
